From ChEMBL document CHEMBL3272098, “Reactions of 2-acyloxyisobutyryl halides with nucleosides. 7. Synthesis and biological evaluation of some 2,2'-anhydro-1(3',5'-di-O-acyl-beta-D-arabinofuranosyl)cytosine hydrochlorides” (J Med Chem, 1976)
The source made the active and inactive calls. The calls are words filed in the database; no cut-off is given here.

Experiments:
HeLa = assay: Cytotoxicity against human HeLa cells after 48 hrs by Coulter counting analysis; type: functional; conditions: read-out: ED50 (the source's name)
Vaccinia virus = assay: Antiviral activity against Vaccinia virus IHD infected in African green monkey BGM cells after 6 days by plaque reduction assay; type: functional; conditions: Orthopoxvirus vaccinia, 144 h, read-out: ED50 (the source's name)
Herpesviridae sp. = assay: Antiviral activity against Herpes simplex virus HF infected in African green monkey BGM cells after 6 days by plaque reduction assay; type: functional; conditions: 144 h, read-out: ED50 (the source's name)
BGM = assay: Antiviral activity against Poliovirus type 1 Mahoney infected in African green monkey BGM cells after 5 days by pulp disk diffusion assay; type: functional, cell-based; conditions: Human poliovirus 1 Mahoney
Measles morbillivirus = assay: Antiviral activity against Measles virus infected in African green monkey BGM cells after 5 days by pulp disk diffusion assay; type: functional, organism-based
[1] = tested on: unidentified influenza virus; assay: Antiviral activity against Influenza virus Ao/WNS infected in monkey LLC-MK2 cells after 5 days by pulp disk diffusion assay; type: functional, organism-based
L1210 [2] = assay: Antitumor activity against mouse L1210 cells allografted in BDF1 mouse assessed as increase in life span at 50 mg/kg, ip administered 24 hrs post-implantation measured up to 30 days relative to control; type: functional; conditions: route intraperitoneal
L1210 [3] = assay: Antitumor activity against mouse L1210 cells allografted in BDF1 mouse assessed as increase in life span at 200 mg/kg, ip administered 24 hrs post-implantation measured up to 30 days relative to control; type: functional; conditions: route intraperitoneal
Mus musculus [4] = assay: Toxicity in BDF1 mouse allografted with mouse L1210 cells assessed as reduction in average life span at 500 mg/kg, ip administered 24 hrs post-implantation measured up to 30 days relative to control; type: organism-based; design: dose 500 mg/kg, route intraperitoneal; scale not given: the % may be the effect or the level left; conditions: in vivo
Mus musculus [5] = assay: Toxicity in BDF1 mouse allografted with mouse L1210 cells assessed as reduction in average life span at 1000 mg/kg, ip administered 24 hrs post-implantation measured up to 30 days relative to control; type: organism-based; design: dose 1000 mg/kg, route intraperitoneal; scale not given: the % may be the effect or the level left; conditions: in vivo
Mus musculus [6] = assay: Toxicity in BDF1 mouse allografted with mouse L1210 cells assessed as survival at 500 mg/kg, ip administered 24 hrs post-implantation after 30 days; type: organism-based; design: dose 500 mg/kg, route intraperitoneal; conditions: in vivo, 720 h
Mus musculus [7] = assay: Toxicity in BDF1 mouse allografted with mouse L1210 cells assessed as survival at 1000 mg/kg, ip administered 24 hrs post-implantation after 30 days; type: organism-based; design: dose 1000 mg/kg, route intraperitoneal; conditions: in vivo, 720 h
L1210 [8] = assay: Antitumor activity against mouse L1210 cells allografted in po dosed BDF1 mouse administered 24 hrs post-implantation; type: functional, organism-based
L1210 [9] = assay: Antitumor activity against mouse L1210 cells allografted in BDF1 mouse assessed as increase in life span at 1000 mg/kg, ip administered 24 hrs post-implantation measured up to 30 days relative to control; type: functional; conditions: route intraperitoneal
L1210 [10] = assay: Antitumor activity against mouse L1210 cells allografted in BDF1 mouse assessed as survival at 50 mg/kg, ip administered 24 hrs post-implantation after 30 days; type: functional, organism-based; design: dose 50 mg/kg
L1210 [11] = assay: Antitumor activity against mouse L1210 cells allografted in BDF1 mouse assessed as survival at 200 mg/kg, ip administered 24 hrs post-implantation after 30 days; type: functional, organism-based; design: dose 200 mg/kg
L1210 [12] = assay: Antitumor activity against mouse L1210 cells allografted in BDF1 mouse assessed as survival at 1000 mg/kg, ip administered 24 hrs post-implantation after 30 days; type: functional, organism-based; design: dose 1000 mg/kg
L1210 [13] = assay: Antitumor activity against mouse L1210 cells allografted in BDF1 mouse assessed as increase in life span at 500 mg/kg, ip administered 24 hrs post-implantation measured up to 30 days relative to control; type: functional; conditions: route intraperitoneal
L1210 [14] = assay: Antitumor activity against mouse L1210 cells allografted in BDF1 mouse assessed as survival at 500 mg/kg, ip administered 24 hrs post-implantation after 30 days; type: functional, organism-based; design: dose 500 mg/kg
Mus musculus [15] = assay: Toxicity in BDF1 mouse allografted with mouse L1210 cells assessed as reduction in average life span at 200 mg/kg, ip administered 24 hrs post-implantation measured up to 30 days relative to control; type: organism-based; design: dose 200 mg/kg, route intraperitoneal; scale not given: the % may be the effect or the level left; conditions: in vivo
Mus musculus [16] = assay: Toxicity in BDF1 mouse allografted with mouse L1210 cells assessed as survival at 200 mg/kg, ip administered 24 hrs post-implantation after 30 days; type: organism-based; design: dose 200 mg/kg, route intraperitoneal; conditions: in vivo, 720 h

SMILES | EC50 (HeLa) [µg/mL] | EC50 (Vaccinia virus) [µM] | EC50 (Herpesviridae sp.) [µM] | Activity (BGM) | Activity (Measles morbillivirus) | Activity [1] | ILS at 50 mg/kg (L1210 [2]) [%] | ILS at 200 mg/kg (L1210 [3]) [%] | Activity (L1210 [8]) | Activity (L1210 [10]) | Activity (L1210 [11]) | other results
CCCCCCCCCCCCCC(=O)OC[C@H]1O[C@@H]2[C@@H](Oc3nc(=N)ccn32)[C@@H]1OC(=O)CCCCCCCCCCCCC.Cl | 0.48 | 1.75 | 6.05 | inactive | inactive | inactive | > 129 | > 295 | inactive | – | – | Activity (Mus musculus [4]): 20%; Activity (Mus musculus [5]): 18%; Activity (Mus musculus [6]): Toxic; Activity (Mus musculus [7]): Toxic
CCCCCCCCCCCCCCCCCC(=O)OC[C@H]1O[C@@H]2[C@@H](Oc3nc(=N)ccn32)[C@@H]1OC(=O)CCCCCCCCCCCCCCCCC.Cl | 3.8 | > 30 | > 30 | inactive | inactive | inactive | 68 | 125 | inactive | inactive | inactive | ILS at 1000 mg/kg (L1210 [9]): > 255%; Activity (L1210 [12]): Active
CCCCCCCCCCCC(=O)OC[C@H]1O[C@@H]2[C@@H](Oc3nc(=N)ccn32)[C@@H]1OC(=O)CCCCCCCCCCC.Cl | 0.48 | 0.7 | 3.45 | inactive | inactive | inactive | > 195 | > 310 | inactive | – | Active | Activity (Mus musculus [4]): 23%; Activity (Mus musculus [5]): 18%; Activity (Mus musculus [6]): Toxic; Activity (Mus musculus [7]): Toxic
CCCCCCCCCCC(=O)OC[C@H]1O[C@@H]2[C@@H](Oc3nc(=N)ccn32)[C@@H]1OC(=O)CCCCCCCCCC.Cl | 0.32 | 0.41 | 0.66 | inactive | inactive | inactive | 88 | > 179 | inactive | inactive | – | ILS at 500 mg/kg (L1210 [13]): > 20%
CC(=O)OC[C@H]1O[C@@H]2[C@@H](Oc3nc(=N)ccn32)[C@@H]1OC(C)=O.Cl | 0.2 | 0.69 | 2.4 | inactive | inactive | inactive | – | 7 | inactive | – | inactive | –
CCCCCCCCCCCCCCCCCCCC(=O)OC[C@H]1O[C@@H]2[C@@H](Oc3nc(=N)ccn32)[C@@H]1OC(=O)CCCCCCCCCCCCCCCCCCC.Cl | 2.5 | > 30 | > 30 | inactive | inactive | inactive | 8 | 31 | inactive | inactive | inactive | ILS at 1000 mg/kg (L1210 [9]): 107%; Activity (L1210 [12]): inactive
CCCCCCCCCCCCCCCC(=O)OC[C@H]1O[C@@H]2[C@@H](Oc3nc(=N)ccn32)[C@@H]1OC(=O)CCCCCCCCCCCCCCC.Cl | 4 | 28 | > 30 | inactive | inactive | inactive | – | 231 | inactive | – | inactive | –
Cl.N=c1ccn2c(n1)O[C@H]1[C@H](O)[C@@H](CO)O[C@H]12 [ANCITABINE HYDROCHLORIDE] | 0.06 | 0.41 | 0.7 | inactive | inactive | inactive | – | 25 | inactive | – | inactive | ILS at 500 mg/kg (L1210 [13]): 67%; ILS at 1000 mg/kg (L1210 [9]): 89%; Activity (L1210 [14]): inactive; Activity (L1210 [12]): inactive
CCCCCCCCC(=O)OC[C@H]1O[C@@H]2[C@@H](Oc3nc(=N)ccn32)[C@@H]1OC(=O)CCCCCCCC.Cl | 0.06 | 0.32 | 0.42 | inactive | inactive | inactive | 14 | – | inactive | inactive | – | Activity (Mus musculus [15]): 88%; Activity (Mus musculus [16]): Toxic
CC(=O)O[C@H]1[C@@H]2Oc3nc(=N)ccn3[C@@H]2O[C@@H]1COC(=O)C(C)(C)C.Cl | 0.2 | 0.77 | 3.2 | inactive | inactive | inactive | – | 18 | inactive | – | inactive | –
CCCCCCCCCC(=O)OC[C@H]1O[C@@H]2[C@@H](Oc3nc(=N)ccn32)[C@@H]1OC(=O)CCCCCCCCC.Cl | 0.2 | 0.32 | 1.1 | inactive | inactive | inactive | 14 | – | inactive | inactive | – | Activity (Mus musculus [15]): 69%; Activity (Mus musculus [5]): 72%; Activity (Mus musculus [16]): Toxic; Activity (Mus musculus [7]): Toxic
CCCCCCCC/C=C/CCCCCCCC(=O)OC[C@H]1O[C@@H]2[C@@H](Oc3nc(=N)ccn32)[C@@H]1OC(=O)CCCCCCC/C=C/CCCCCCCC.Cl | 1.4 | 4.7 | 9.3 | inactive | inactive | inactive | 114 | > 258 | inactive | inactive | – | ILS at 500 mg/kg (L1210 [13]): > 257%; ILS at 1000 mg/kg (L1210 [9]): 11%; Activity (L1210 [14]): Active; Activity (L1210 [12]): inactive
CCCC(=O)OC[C@H]1O[C@@H]2[C@@H](Oc3nc(=N)ccn32)[C@@H]1OC(=O)CCC.Cl | 0.11 | 1.55 | 4.9 | inactive | inactive | inactive | – | 58 | inactive | – | inactive | ILS at 500 mg/kg (L1210 [13]): 85%; Activity (Mus musculus [5]): 100%; Activity (L1210 [14]): inactive; Activity (Mus musculus [7]): Toxic
CCCCCCCC(=O)OC[C@H]1O[C@@H]2[C@@H](Oc3nc(=N)ccn32)[C@@H]1OC(=O)CCCCCCC.Cl | 0.1 | 0.56 | 1.35 | inactive | inactive | inactive | – | 28 | inactive | – | inactive | –
CCCCCCCCCCCCCCCCCCCCCC(=O)OC[C@H]1O[C@@H]2[C@@H](Oc3nc(=N)ccn32)[C@@H]1OC(=O)CCCCCCCCCCCCCCCCCCCCC.Cl | > 10 | > 30 | > 30 | inactive | inactive | inactive | 15 | 55 | inactive | inactive | inactive | ILS at 1000 mg/kg (L1210 [9]): 139%; Activity (L1210 [12]): inactive
CC(=O)O[C@H]1[C@@H]2Oc3nc(=N)ccn3[C@@H]2O[C@@H]1COC(=O)C12CC3CC(CC(C3)C1)C2.Cl | 0.2 | 0.64 | 2.1 | inactive | inactive | inactive | – | – | inactive | – | – | Activity (Mus musculus [15]): 100%; Activity (Mus musculus [16]): Toxic
CC(=O)O[C@H]1[C@@H]2Oc3nc(=N)ccn3[C@@H]2O[C@@H]1COC(=O)C12C=CC(C)(CC1)CC2.Cl | 0.2 | 0.4 | 1.75 | inactive | inactive | inactive | – | 20 | inactive | – | inactive | –
